This is an account of results in article PMC9607599, “Dual Targeting Ligands—Histamine H3 Receptor Ligands with Monoamine Oxidase B Inhibitory Activity—In Vitro and In Vivo Evaluation” (Pharmaceutics, 2022).

Assay [1] concerns the target T1, MAO B in rat cerebral cortex (Rattus norvegicus, UniProt P19643).
T1 construct: from tissue; host or cells: cerebral cortex homogenate of male Wistar rats
T1 sequence (P19643 1-520): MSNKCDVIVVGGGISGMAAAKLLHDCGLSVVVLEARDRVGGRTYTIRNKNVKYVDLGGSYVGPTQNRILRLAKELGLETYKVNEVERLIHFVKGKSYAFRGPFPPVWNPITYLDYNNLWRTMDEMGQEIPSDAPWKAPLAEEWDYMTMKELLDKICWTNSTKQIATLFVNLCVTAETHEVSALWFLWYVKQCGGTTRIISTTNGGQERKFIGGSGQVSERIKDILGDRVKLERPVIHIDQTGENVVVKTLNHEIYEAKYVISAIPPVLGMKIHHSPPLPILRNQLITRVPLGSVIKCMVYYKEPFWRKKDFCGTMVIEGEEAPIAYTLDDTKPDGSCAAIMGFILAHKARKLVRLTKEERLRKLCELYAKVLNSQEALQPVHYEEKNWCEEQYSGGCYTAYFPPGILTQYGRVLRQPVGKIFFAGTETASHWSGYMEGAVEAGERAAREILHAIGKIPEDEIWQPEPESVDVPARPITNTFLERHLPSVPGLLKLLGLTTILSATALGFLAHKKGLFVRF
Nature of the assay: MAO B activity in cerebral cortex homogenates after sub-chronic administration (radioassay). Particulars: 3 mg/kg/day s.c. for 6 days. It counts as in vivo. On the procedure: (§1) The compound 13 was given to intact Wistar rats to verify its impact on the metabolism of biogenic amines in the brain (cerebral amines and their metabolites concentrations as well as activities of metabolizing enzymes). […] Both drugs (3 mg/kg body mass, dissolved in 0.9% NaCl) were given subcutaneously for 6 consecutive days. Control rats were injected with 200 μL of 0.9% NaCl.
(§2) Tissues were collected and properly prepared for subsequent biochemical analyzes. The brain was quickly removed from the skull and the selected structures (hypothalamus, striatum, cerebral cortex) were dissected according to the method by Glowinsky and Iversen, immediately frozen in liquid nitrogen and kept at −80 °C until assayed.
(§3) MAO A and MAO B activities were estimated in cerebral homogenates with radioassays using 5-[2-^14C]-hydroxytryptamine binoxalate (final conc. 200 µM) and β-[ethyl-1-^14C]-phenylethylamine hydrochloride (final conc. 20 µM), as well as specific inhibitors—clorgyline and deprenyl (final conc. 10^−9 M), respectively.
(§4) The enzyme activities are expressed as pmol/min/mg protein. Protein concentration was analyzed by Lowry’s method.

Assay [2] concerns the target T2, MAO A in rat cerebral cortex (Rattus norvegicus, UniProt P21396).
T2 construct: from tissue; host or cells: cerebral cortex homogenate of male Wistar rats
T2 sequence (P21396 1-526): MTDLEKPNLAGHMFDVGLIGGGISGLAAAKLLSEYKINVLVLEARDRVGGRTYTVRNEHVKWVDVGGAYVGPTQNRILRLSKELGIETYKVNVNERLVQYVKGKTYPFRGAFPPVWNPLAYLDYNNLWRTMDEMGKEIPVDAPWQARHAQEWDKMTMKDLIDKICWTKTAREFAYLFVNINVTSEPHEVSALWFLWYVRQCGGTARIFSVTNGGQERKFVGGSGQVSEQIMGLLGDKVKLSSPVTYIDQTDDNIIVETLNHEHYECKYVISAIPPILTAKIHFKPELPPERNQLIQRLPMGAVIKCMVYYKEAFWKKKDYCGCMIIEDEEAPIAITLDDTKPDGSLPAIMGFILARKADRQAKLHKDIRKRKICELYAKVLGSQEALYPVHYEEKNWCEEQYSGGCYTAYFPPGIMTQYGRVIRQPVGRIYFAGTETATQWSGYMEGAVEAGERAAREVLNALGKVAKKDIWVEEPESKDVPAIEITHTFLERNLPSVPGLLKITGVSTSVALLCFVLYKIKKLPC
Nature of the assay: MAO A activity in cerebral cortex homogenates after sub-chronic administration (radioassay). Type of assay: in vivo. Particulars: 3 mg/kg/day s.c. for 6 days. On the procedure: as §1, §2, §3, §4

The subject of assay [3] is astrocyte cell line isolated from human cerebral cortex. Nature of the assay: MTT cell viability test on human astrocytes. Type of assay: cell-based. The note with it: Astrocyte, human astrocytes, MTT. The method, then: The studies were performed on a commercially-available astrocyte cell line isolated from human cerebral cortex (ScienCell Research Laboratories, San Diego, CA, USA; Cat no. 1800). The cells (passage 7–8) were seeded into a 96-well plate at an amount of 10,000 cells/well and kept in accordance with the ScienCell Research Laboratories’ protocol, i.e., in astrocyte medium supplemented with 2% fetal bovine serum, 10% astrocyte growth supplement and 1% penicillin/streptomycin solution, in an atmosphere with 5% CO2 at 37 °C. The cells were allowed to grow for 24 h and then treated with increasing concentrations of test compounds (0.01–0.25 mg/mL) for 24 and 72 h. Astrocytes in the medium on each plate (regardless of the factors tested) were used as a positive control.
The viability of the astrocyte cell line was determined calorimetrically using 3-(4,5-dimethylthazol-2-yl)-2,5-diphenyltetrazolium bromide (MTT; Sigma-Aldrich Chemical Co. Ltd., Saint Louis, MO, USA) as described earlier. […] After the incubation time (24 or 72 h) with examined drugs, 50 μL MTT solution (1 mg/mL) was added to each well of the plate for another 4 h. The method is based on the reduction of a yellow tetrazolium salt (MTT) into purple formazan crystals by mitochondrial succinate-tetrazolium reductase system which is metabolically active in viable cells. At the end of the experiment, the cells were treated with 100 μL dimethyl sulphoxide, which enabled the release of the reaction product.
The absorbance was measured at 570 nm using a BioTek EL×800 microplate reader (BioTek, Winooski, Vermont, USA) and results were expressed as a percentage of the absorbance measured in control cells. The obtained values were plotted against different concentrations of each compound to calculate the viability inhibition concentration at 50% (IC50) using GraphPad Prism 6.07 (GraphPad Software, Inc., San Diego, CA, USA). The experiment was repeated in quadruplicate.
For the cytotoxicity assessment in the MTT assays, each test drug was used at 8 concentrations (range: 0.01–0.25 mg/mL).
On the technique in general: Tetrazolium dyes change colour on reduction, which living cells bring about.

The mark [4] stands for this setting: 24 h incubation, read-out: IC50 24 h.
Where [5] appears, read: 72 h incubation, read-out: IC50 72 h.

Values joined by “and” are separate entries in the source; they are usually repeats but may differ in a detail not shown here. Identical values can stand only once. Like-named read-outs stand apart in the source and are kept apart here.

A word on the inhibition: it is how much of the control response was suppressed. Usually IC50 stands for the concentration at which inhibition is half-maximal. Turning to `CC1CCCN1CCCOc1ccc(C(C)(C)C)cc1.O=C(O)C(=O)O` (stereo not drawn) [Compound 13, 1-(3-(4-(tert-Butyl)phenoxy)propyl)-2-methylpyrrolidine hydrogen oxalate], the “MAO B activity in cerebral cortex” value in assay [1] stood at 48.38 ± 12.02 pmol/min/mg protein. Moreover, the “decline in MAO B activity in rat cerebral cortex” value in assay [1] (vs control) is 91.7% and > 90%. The compound also yielded an inhibition at 3 mg/kg in assay [2] (rat, sc, data not shown) of 12%. Also, the IC50 is 230 µM and 84 µg/mL in assay [3] (setting [4]); 142 µM and 52 µg/mL in assay [3] (setting [5]).
With `Clc1ccc(CCCOCCCN2CCCCC2)cc1` [Pitolisant, 3-(4-chlorophenyl)propyl 3-piperidinopropyl ether, reference compound], the “MAO B activity vs control, in words” value in assay [1] was “close to that recorded in control animals”. Further, in assay [2], the “MAO A activity vs control, in words” value is “close to that recorded in control animals”. Also, the IC50 in assay [3] (setting [4]) was 346 µM and 115 µg/mL; in assay [3] (setting [5]), 241 µM and 80 µg/mL.
